Laboratory results published in PMC12030650, “Synthesis, Antitumor Activities, and Apoptosis-Inducing Activities of Schiff’s Bases Incorporating Imidazolidine-2,4-dione Scaffold: Molecular Docking Studies and Enzymatic Inhibition Activities” (Pharmaceuticals, 2025).
“And” between values parts separate entries of the source, which are not always exact repeats. Identical values can stand only once. Like-named read-outs stand apart in the source and are kept apart here.

Experiments:
[1] = target: T1, EGFR (Homo sapiens, UniProt P00533); set-up: method as in PMID 31297023; details: read-out: kinase inhibition of EGFR IC50; cited from earlier work
T1 construct: purchased BPS Bioscience 40321
T1 sequence (P00533 25-1210): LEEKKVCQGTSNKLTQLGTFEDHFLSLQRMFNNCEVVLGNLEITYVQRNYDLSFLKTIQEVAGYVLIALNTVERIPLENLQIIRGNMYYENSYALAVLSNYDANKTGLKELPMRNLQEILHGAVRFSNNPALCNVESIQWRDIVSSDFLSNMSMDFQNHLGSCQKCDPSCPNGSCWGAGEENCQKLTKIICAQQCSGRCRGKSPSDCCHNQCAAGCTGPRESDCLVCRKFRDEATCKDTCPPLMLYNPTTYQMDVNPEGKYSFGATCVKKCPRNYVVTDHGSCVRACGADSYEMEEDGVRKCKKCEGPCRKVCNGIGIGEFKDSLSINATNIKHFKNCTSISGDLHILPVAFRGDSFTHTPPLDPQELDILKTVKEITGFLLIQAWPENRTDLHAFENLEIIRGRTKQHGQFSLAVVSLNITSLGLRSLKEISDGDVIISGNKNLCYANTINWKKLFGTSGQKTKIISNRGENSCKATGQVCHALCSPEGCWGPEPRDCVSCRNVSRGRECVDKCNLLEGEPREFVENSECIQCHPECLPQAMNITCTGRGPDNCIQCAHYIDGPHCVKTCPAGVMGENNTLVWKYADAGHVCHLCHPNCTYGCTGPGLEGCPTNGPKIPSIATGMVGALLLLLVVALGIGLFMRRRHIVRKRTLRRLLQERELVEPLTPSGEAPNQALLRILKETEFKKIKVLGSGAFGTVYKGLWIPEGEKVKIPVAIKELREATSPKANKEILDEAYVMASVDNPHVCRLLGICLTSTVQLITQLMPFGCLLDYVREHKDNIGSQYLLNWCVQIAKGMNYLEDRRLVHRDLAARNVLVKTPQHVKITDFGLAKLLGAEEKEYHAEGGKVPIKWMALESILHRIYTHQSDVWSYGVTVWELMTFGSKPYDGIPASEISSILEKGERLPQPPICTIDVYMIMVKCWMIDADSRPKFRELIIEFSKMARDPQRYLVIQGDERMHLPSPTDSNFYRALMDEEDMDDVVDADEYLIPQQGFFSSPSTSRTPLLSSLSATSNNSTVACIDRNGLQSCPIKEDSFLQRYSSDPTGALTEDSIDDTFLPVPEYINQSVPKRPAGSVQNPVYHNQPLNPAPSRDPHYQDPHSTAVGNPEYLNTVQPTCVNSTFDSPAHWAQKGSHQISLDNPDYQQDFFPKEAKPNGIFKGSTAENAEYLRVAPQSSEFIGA

[2] = tested on: various cell lines; set-up: method as in doi:10.1007/s00044-013-0597-1; details: read-out: cytotoxic effect on various cell lines IC50; cited from earlier work
[3] = tested on: breast cancer cell line MCF-7; set-up: method as in doi:10.1016/j.rechem.2023.101118; details: cited from earlier work
[4] = target: T2, HER2 (Homo sapiens, UniProt P04626); test: In vitro luminescent HER2 tyrosine kinase assay (Kinase-Glo Max); assay type: biochemical; details: read-out: Kinase Inhibition IC50 HER2
T2 construct: purchased BPS Bioscience 40721
T2 sequence (P04626 23-1255): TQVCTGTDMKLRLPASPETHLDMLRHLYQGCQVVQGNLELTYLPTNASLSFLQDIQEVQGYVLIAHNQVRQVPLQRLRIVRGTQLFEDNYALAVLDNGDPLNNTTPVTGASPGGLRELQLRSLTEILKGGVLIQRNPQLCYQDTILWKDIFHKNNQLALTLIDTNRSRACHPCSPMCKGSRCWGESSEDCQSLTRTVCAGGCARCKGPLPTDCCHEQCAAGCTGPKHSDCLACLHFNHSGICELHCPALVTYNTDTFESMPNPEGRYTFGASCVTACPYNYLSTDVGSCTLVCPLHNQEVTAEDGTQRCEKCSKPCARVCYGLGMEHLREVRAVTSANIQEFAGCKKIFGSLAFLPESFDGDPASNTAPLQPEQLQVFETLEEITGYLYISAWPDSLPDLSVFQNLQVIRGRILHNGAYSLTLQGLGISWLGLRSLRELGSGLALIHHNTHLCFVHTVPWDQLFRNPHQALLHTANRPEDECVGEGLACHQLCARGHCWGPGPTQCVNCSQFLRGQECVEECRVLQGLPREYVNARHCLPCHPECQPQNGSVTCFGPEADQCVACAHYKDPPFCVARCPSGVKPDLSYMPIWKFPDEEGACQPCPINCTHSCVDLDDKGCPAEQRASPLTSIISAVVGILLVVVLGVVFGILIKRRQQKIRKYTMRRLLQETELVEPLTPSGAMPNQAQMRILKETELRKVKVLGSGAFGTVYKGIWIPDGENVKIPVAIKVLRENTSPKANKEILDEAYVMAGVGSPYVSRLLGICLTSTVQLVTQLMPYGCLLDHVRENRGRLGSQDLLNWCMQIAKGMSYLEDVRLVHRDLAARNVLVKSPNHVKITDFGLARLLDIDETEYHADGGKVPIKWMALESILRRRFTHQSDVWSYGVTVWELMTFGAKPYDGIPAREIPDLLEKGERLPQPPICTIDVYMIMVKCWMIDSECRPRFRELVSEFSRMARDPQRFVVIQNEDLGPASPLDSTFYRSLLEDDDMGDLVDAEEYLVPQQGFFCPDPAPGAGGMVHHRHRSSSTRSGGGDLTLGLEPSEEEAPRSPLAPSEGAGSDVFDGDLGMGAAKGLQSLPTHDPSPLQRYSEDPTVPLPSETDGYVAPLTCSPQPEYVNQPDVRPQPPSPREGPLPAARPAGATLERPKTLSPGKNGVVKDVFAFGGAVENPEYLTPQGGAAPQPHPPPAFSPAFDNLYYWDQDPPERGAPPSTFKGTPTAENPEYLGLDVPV
Protocol: […]. Erlotinib was probed as the standard drug in the EGFR inhibition assay, while lapatinib was tested as the […]. […].
EGFR and HER2 kinase inhibitory activities were determined based on the manufacturer’s guidelines (EGFR Kinase Assay Kit Catalog no. 40321 and HER2 Kinase Assay Kit Catalog no. 40721, BPS Bioscience, San Diego, CA).

[5] = tested on: HCT-116, HePG-2, and MCF-7; test: MTT cytotoxicity, summary over the examined cancer cell lines; details: Homo sapiens
[6] = target: T1, EGFR; test: In vitro luminescent EGFR tyrosine kinase assay (Kinase-Glo Max); assay type: biochemical; details: read-out: Kinase Inhibition IC50 EGFR
[7] = tested on: hepatoblastoma (HePG-2); test: MTT cytotoxicity assay, HePG-2; details: for IC50: Homo sapiens, HepG2, read-out: IC50 HePG-2; for SI (selectivity index) HePG-2: WI-38 vs HePG-2
[8] = tested on: WI-38 normal fibroblast cell line; test: MTT cytotoxicity against normal human cells; assay type: cell-based; details: normal fibroblast WI-38; for IC50: Homo sapiens, read-out: IC50 WI-38
Protocol: The evaluation was conducted using a 3-(4,5-dimethylthiazol-2-yl)-2,5-diphenyltetrazolium bromide (MTT) assay, as described by the authors of [50, 51]. The cell lines were obtained from ATCC. For comparative purposes, standard drugs, such as doxorubicin and erlotinib, were employed.

[9] = tested on: human colorectal carcinoma (HCT-116); test: MTT cytotoxicity assay, HCT-116; details: for IC50: Homo sapiens, HCT-116, read-out: IC50 HCT-116; for SI (selectivity index) HCT-116: WI-38 vs HCT-116
[10] = tested on: breast adenocarcinoma (MCF-7); test: MTT cytotoxicity assay, MCF-7; details: for IC50: Homo sapiens, MCF7, read-out: IC50 MCF-7; for SI (selectivity index) MCF-7: WI-38 vs MCF-7
[11] = tested on: anti-apoptotic protein MCL-1 in MCF-7; test: MCL-1 expression in MCF-7 cells (ELISA); assay type: cell-based, human
Protocol: (§1) Apoptosis is regulated by intrinsic pathways such as the B-cell lymphoma-2 (BCL-2) family. […] MCL-1, one of the BCL-2 family members, is likely to have a significant role in cell death. The expression of MCL-1 and BCL-2 in MCF-7 cells treated with different concentrations was studied.
(§2) Apoptosis of the MCF-7 cancer cell line was measured using the Human MCL1eia kit (ELISA Kit) for the MCL-1 enzyme assay and the Invitrogen Zymed® Bcl-2 ELISA Kit for the BCL-2 enzyme assay. The ROBONIK P2000 ELISA READER was used for analysis.

[12] = tested on: MCF-7 cell line; test: Cell cycle analysis (propidium iodide, flow cytometry); assay type: cell-based, human
Source text: Cell cycle analysis is used to quantify DNA content distribution via flow cytometry at various cell cycle stages (pre-G1, G1, S, and G2/M). Compound 24 was selected to analyze its effect on cell cycle progression in the MCF-7 cell line at different concentrations.
Cancer cell line MCF-7 was stained with ab139418_Propidium Iodide (DNA stain) and analyzed using a FACSCalibur flow cytometer.

[13] = tested on: anti-apoptotic protein BCL-2 in MCF-7; test: BCL-2 expression in MCF-7 cells (ELISA); assay type: cell-based, human
Protocol: as §1, §2

Row | Structure (SMILES) | IC50 [4] | IC50 [6] | IC50 [7] | SI (selectivity index) HePG-2 [7] | IC50 [8] | IC50 WI-38 [8] | IC50 [9] | SI (selectivity index) HCT-116 [9] | IC50 [10] | SI (selectivity index) MCF-7 [10] | also measured
1 | O=C(CN1C(=O)NC(c2ccccc2)(c2ccccc2)C1=O)N/N=C/c1c[nH]c2ccccc12 [Compound 1] |  |  |  |  |  |  |  |  |  |  | IC50 [1]: 0.1 µM
2 | O=C(CN1C(=O)NC(c2ccccc2)(c2ccccc2)C1=O)c1ccc(N2CCCCC2)cc1 [Compound 2] |  |  |  |  |  |  |  |  |  |  | IC50 [2]: 10 µM
3 | O=C(CN1C(=O)NC(c2ccccc2)(c2ccccc2)C1=O)Nc1ccc(S(=O)(=O)Nc2ccccn2)cc1 [Compound 3] |  |  |  |  |  |  |  |  |  |  | inhibition of the breast cancer cell line MCF-7 [3]: around 74%
4 | CC(=NNC(=O)CN1C(=O)NC(c2ccccc2)(c2ccccc2)C1=O)c1cccnc1 [Compound 21, 2-(2,5-Dioxo-4,4-diphenylimidazolidin-1-yl)-N′-(1-(pyridin-3-yl)ethylidene)acetohydrazide] | 1.17 ± 0.04 µM | 1.61 ± 0.07 µM | 11.5 ± 1 µM | 5.2 and 5.28 | 60.8 µM | low cytotoxicity | 19.2 ± 1.5 µM | 3.1 and 3.15 | 8.61 ± 0.6 µM | 7.06 | IC50 ([5]; read-out: average IC50 versus the examined cell lines): 13.1 µM
5 | CC(=NNC(=O)CN1C(=O)NC(c2ccccc2)(c2ccccc2)C1=O)c1ccc2ccccc2c1 [Compound 24, 2-(2,5-Dioxo-4,4-diphenylimidazolidin-1-yl)-N′-(1-(naphthalen-2-yl)ethylidene)acetohydrazide] | 0.04 ± 0.001 µM | 0.07 ± 0.004 µM | 9.07 ± 0.8 µM | 4.3 and 4.35 | 39.5 µM | low cytotoxicity | 12.8 ± 0.9 µM | 3.0 and 3.08 | 4.92 ± 0.3 µM | 8.0 and 8.03 | IC50 ([5]; read-out: IC50 range against the selected cell lines): 4.92 to 20.1 µM; MCL-1 expression level ([11]; 2 µM): 715.62 pg/mL; MCL-1 expression level ([11]; 10 μM): 261.20 pg/mL and 261.20 ± 8.97 pg/mL; Comment (cell cycle arrest) [12]: cell cycle arrest appeared at the G2/M phase; %G0–G1 ([12]; 2 µM): 52.12%; %G2/M ([12]; 2 µM): 25.43%; %S ([12]; 2 µM): 22.45%; %G0–G1 ([12]; 10 μM): 50.61%; %G2/M ([12]; 10 μM): 33.46%; %S ([12]; 10 μM): 15.93%; BCL-2 expression level ([13]; 2 µM): 15.55 ng/mL; BCL-2 expression level ([13]; 10 μM): 8.60 ng/mL and 8.598 ± 0.29 ng/mL
